Assays:
DPP1 in HL-60 cells [1] = biological target: T1, DPP1 in HL-60 cells (Homo sapiens (Human), UniProt P53634); assay: DPP1 Cell IC50 assay; format: cell-based; settings: H-Gly-Phe-AFC substrate, 60 min pre-incubation
Procedure: Media was changed every three to four days and cells were not allowed to exceed 1×10^6 cells per mL. Prior to assay, cells were collected by centrifugation at 500 rcf for 3 minutes, resuspended in PBS and counted. Cells were diluted in PBS to a concentration of 5×10^5 live cells per mL and transferred to black 96-well plates for assay, 60 μL per well. Test articles were diluted in PBS plus 0.5% DMSO, and 20 μL was added to each assay well. Compound was allowed to pre-incubate with cells with gentle shaking at 100 rpm for 60 minutes at 37° C. in a cell culture incubator maintained at 5% CO2, after which 20 μL of 500 μM H-Gly-Phe-AFC substrate (MP Biomedicals; Solon, OH) was added to each well. Plates were returned to the incubator with shaking at 100 rpm for 30 minutes, after which fluorescence was measured at Excitation/Emission 400/505 nm. % Inhibition was calculated from RFU values compared to control cell wells that received only PBS plus 0.5% DMSO. IC50 values for each compound were calculated via the XLFit (IDBS Version 5.3.1.3) Add-On to Microsoft Excel using the four parameter fit equation y=(A+((B-A)/(1+((C/x)^D)))), which appears as equation number 205 (4 Parameter Logistic Model or Sigmoidal Dose-Response Model) in XLFit.

human DPP1 enzyme [2] = biological target: T2, human DPP1 enzyme (Homo sapiens (Human), UniProt P53634); assay: Human DPP1 enzyme IC50 assay; format: biochemical; settings: recombinant human DPP1, H-Gly-Arg-AMC substrate 400 μM
T2 sequence (P53634 25-134): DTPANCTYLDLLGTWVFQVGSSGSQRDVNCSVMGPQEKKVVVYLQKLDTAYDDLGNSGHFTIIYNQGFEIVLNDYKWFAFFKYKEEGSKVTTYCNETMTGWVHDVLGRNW
T2 sequence (P53634 231-394): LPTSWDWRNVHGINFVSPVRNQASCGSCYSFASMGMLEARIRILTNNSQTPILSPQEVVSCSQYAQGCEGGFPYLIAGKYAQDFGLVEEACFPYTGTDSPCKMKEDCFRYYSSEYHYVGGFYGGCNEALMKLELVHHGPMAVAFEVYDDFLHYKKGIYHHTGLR
T2 sequence (P53634 395-463): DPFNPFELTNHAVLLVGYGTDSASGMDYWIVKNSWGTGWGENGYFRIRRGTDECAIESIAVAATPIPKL
Procedure: Test articles were applied to activated human DPP1 enzyme in Assay Buffer (25 mM MES pH 6.0, 50 mM NaCl, 5 mM DTT) in a total reaction volume of 125 μL. 25 μL of compound in Assay Buffer plus 5% DMSO was first added to 50 μL of activated human DPP1 enzyme at a concentration of 1 ng/μL and allowed to pre-incubate for 10 minutes at 37° C. after which 50 μL of 1000 μM H-Gly-Arg-AMC substrate (Bachem; St. Torrance, CA) was added, giving final substrate concentration of 400 μM and a final DMSO concentration of 1%. Substrate cleavage was measured for 90 minutes at 37° C., with fluorescence at Excitation/Emission 350/450 nm measured every 5 minutes. DPP1 concentration was interpolated based on its activity relative to a standard curve of activated human recombinant DPP1 enzyme. IC50 values for each compound were calculated via the XLFit (IDBS Version 5.3.1.3) Add-On to Microsoft Excel using the four parameter fit equation y={A+[(B-A)]/[1+((C/x)^D)]}, which appears as equation number 205 (4 Parameter Logistic Model or Sigmoidal Dose-Response Model) in XLFit. Default constraints were used for each Parameter.

human DPP1 enzyme [3] = biological target: T2, human DPP1 enzyme; assay: Human DPP1 enzyme single-point percent inhibition testing (HL-60 lysate, H-Gly-Arg-AMC substrate); format: biochemical; settings: read-out: human DPP1 enzyme % inhibition @ 10 nM, 10 nM compound, 400 μM H-Gly-Arg-AMC, 10 min pre-incubation at 37° C.
DPP1 in HL-60 cells [4] = biological target: T1, DPP1 in HL-60 cells; assay: DPP1 cell single-point percent inhibition testing (HL-60 cells, H-Gly-Phe-AFC substrate); format: cell-based; settings: read-out: DPP1 cell % inhibition @ 5 nM, 5 nM compound, 100 μM H-Gly-Phe-AFC, 60 min pre-incubation at 37° C.

T1 sequence (P53634 25-134): as the sequence (P53634 25-134) above
T1 sequence (P53634 231-394): as the sequence (P53634 231-394) above
T1 sequence (P53634 395-463): as the sequence (P53634 395-463) above

Compound	IC50 (DPP1 in HL-60 cells [1]) [nM]	IC50 (human DPP1 enzyme [2]) [nM]	inhibition at 0.01 µM (human DPP1 enzyme [3]) [%]	inhibition at 0.005 µM (DPP1 in HL-60 cells [4]) [%]
Cn1c(=O)oc2ccc(-c3ccc(C[C@@H](C#N)NC(=O)[C@@H](N)C4CCCO4)cc3)cc21 (stereo in doubt) [Compound 210, (2S)-2-amino-N-[(1S)-1-cyano-2-[4-(3-methyl-2-oxo-1,3-benzoxazol-5-yl)phenyl]ethyl]-2-[(2S)-oxolan-2-yl]acetamide]	≥ 2.5	5 to 15	–	–
Cn1c(=O)oc2ccc(-c3ccc(C[C@@H](C#N)NC(=O)[C@@H](N)C4CCCO4)cc3)cc21 (stereo in doubt) [Compound 212, (2S)-2-amino-N-[(1S)-1-cyano-2-[4-(3-methyl-2-oxo-1,3-benzoxazol-5-yl)phenyl]ethyl]-2-[(2R)-oxolan-2-yl]acetamide]	1 to 2.5	≤ 5	–	–
Cn1c(=O)oc2ccc(-c3ccc(CC(C#N)NC(=O)C4(N)CCCC45CC5)c(F)c3)cc21 (stereo in doubt) [Compound 273A, (4S)-4-amino-N-[(1S)-1-cyano-2-[2-fluoro-4-(3-methyl-2-oxo-1,3-benzoxazol-5-yl)phenyl]ethyl]spiro[2.4]heptane-4-carboxamide]	≥ 2.5	≥ 15	–	–
C[C@@H](N)[C@@H](O)C(=O)N[C@H](C#N)Cc1ccc(-c2ccc3oc(=O)n(C)c3c2)cc1 [Compound 102B]	≥ 2.5	≥ 15	–	–
CO[C@@H](CN)C(=O)N[C@H](C#N)Cc1ccc(-c2ccc3oc(=O)n(C)c3c2)cc1 [Compound 103, (2S)-3-amino-N-[(1S)-1-cyano-2-[4-(3-methyl-2-oxo-1,3-benzoxazol-5-yl)phenyl]ethyl]-2-methoxypropanamide]	≥ 2.5	≥ 15	–	–
CO[C@@H](CN(C)C)C(=O)N[C@H](C#N)Cc1ccc(-c2ccc3oc(=O)n(C)c3c2)cc1 [Compound 105, (2S)—N-[(1S)-1-cyano-2-[4-(3-methyl-2-oxo-1,3-benzoxazol-5-yl)phenyl]ethyl]-3-(dimethylamino)-2-methoxypropanamide]	1 to 2.5	≥ 15	–	–
CNC[C@H](OC)C(=O)N[C@H](C#N)Cc1ccc(-c2ccc3oc(=O)n(C)c3c2)cc1 [Compound 109, (S)—N—((S)-1-cyano-2-(4-(3-methyl-2-oxo-2,3-dihydrobenzo[d]oxazol-5-yl)phenyl)ethyl)-2-methoxy-3-(methylamino)propanamide]	≥ 2.5	≥ 15	–	–
Cn1c(=O)oc2ccc(-c3ccc(C[C@@H](C#N)NC(=O)[C@@H](O)CN)cc3)cc21 [Compound 110, (2S)-3-amino-N-[(1S)-1-cyano-2-[4-(3-methyl-2-oxo-1,3-benzoxazol-5-yl)phenyl]ethyl]-2-hydroxypropanamide]	≥ 2.5	≥ 15	–	–
CNC[C@H](O)C(=O)N[C@H](C#N)Cc1ccc(-c2ccc3oc(=O)n(C)c3c2)cc1 [Compound 111, (2S)—N-[(1S)-1-cyano-2-[4-(3-methyl-2-oxo-1,3-benzoxazol-5-yl)phenyl]ethyl]-2-hydroxy-3-(methylamino)propanamide]	≥ 2.5	≥ 15	–	–
CN(C)C[C@H](O)C(=O)N[C@H](C#N)Cc1ccc(-c2ccc3nnn(C)c3c2)cc1F [Compound 141, (2S)—N-[(1S)-1-cyano-2-[2-fluoro-4-(3-methyl-1,2,3-benzotriazol-5-yl)phenyl]ethyl]-3-(dimethylamino)-2-hydroxypropanamide]	1 to 2.5	5 to 15	–	–
CN(C)C[C@H](O)C(=O)N[C@H](C#N)Cc1ccc(-c2ccc3oc(=O)n(CCN4CCOCC4)c3c2)cc1F [Compound 142, (2S)—N-[(1S)-1-cyano-2-(2-fluoro-4-{3-[2-(morpholin-4-yl)ethyl]-2-oxo-1,3-benzoxazol-5-yl}phenyl)ethyl]-3-(dimethylamino)-2-hydroxypropanamide]	≥ 2.5	5 to 15	–	–
CN(C)C[C@H](O)C(=O)N[C@H](C#N)Cc1ccc(-c2ccc3c(c2)C2(CCN(C4COC4)CC2)OC3)cc1 [Compound 144, (2S)—N-[(1S)-1-cyano-2-{4-[1′-(oxetan-3-yl)-3H-spiro[2-benzofuran-1,4′-piperidin]-6-yl]phenyl}ethyl]-3-(dimethylamino)-2-hydroxypropanamide]	≥ 2.5	≥ 15	–	–
CN(C)C[C@H](O)C(=O)N[C@H](C#N)Cc1ccc(-c2ccc3c(c2)C2(CCCN(C)C2)C(=O)N3C)cc1 (stereo partly drawn) [Compound 145, (2S)—N-[(1S)-1-cyano-2-(4-{1,1′-dimethyl-2-oxospiro[indole-3,3′-piperidin]-5-yl}phenyl)ethyl]-3-(dimethylamino)-2-hydroxypropanamide]	1 to 2.5	≥ 15	–	–
CCCCOCCn1c(=O)oc2ccc(-c3ccc(C[C@@H](C#N)NC(=O)[C@@H](O)CN(C)C)c(F)c3)cc21 [Compound 146, (2S)—N-[(1S)-2-{4-[3-(2-butoxyethyl)-2-oxo-1,3-benzoxazol-5-yl]-2-fluorophenyl}-1-cyanoethyl]-3-(dimethylamino)-2-hydroxypropanamide]	≥ 2.5	5 to 15	–	–
Cn1c(=O)oc2ccc(-c3ccc(C[C@@H](C#N)NC(=O)[C@H](N)CCO)cc3)cc21 [Compound 169, (2R)-2-amino-N-[(1S)-1-cyano-2-[4-(3-methyl-2-oxo-1,3-benzoxazol-5-yl)phenyl]ethyl]-4-hydroxybutanamide]	≥ 2.5	≥ 15	–	–
C[C@@H](O)[C@](C)(N)C(=O)N[C@H](C#N)Cc1ccc(-c2ccc3oc(=O)n(C)c3c2)cc1 [Compound 171A, (2S,3R)-2-amino-N-[(1S)-1-cyano-2-[4-(3-methyl-2-oxo-1,3-benzoxazol-5-yl)phenyl]ethyl]-3-hydroxy-2-methylbutanamide]	≥ 2.5	≥ 15	–	–
C[C@H](O)[C@](C)(N)C(=O)N[C@H](C#N)Cc1ccc(-c2ccc3oc(=O)n(C)c3c2)cc1 [Compound 171B, (2S,3S)-2-amino-N-[(1S)-1-cyano-2-[4-(3-methyl-2-oxo-1,3-benzoxazol-5-yl)phenyl]ethyl]-3-hydroxy-2-methylbutanamide]	≥ 2.5	≥ 15	–	–
CC(C)C(C)(N)C(=O)N[C@H](C#N)Cc1ccc(-c2ccc3oc(=O)n(C)c3c2)cc1 (stereo partly drawn) [Compound 172, 2-amino-N-[(1S)-1-cyano-2-[4-(3-methyl-2-oxo-1,3-benzoxazol-5-yl)phenyl]ethyl]-2,3-dimethylbutanamide]	1 to 2.5	5 to 15	–	–
Cn1c(=O)oc2ccc(-c3ccc(C[C@@H](C#N)NC(=O)CC(N)C4CCCCC4)cc3)cc21 (some centres unmarked) [Compound 188]	≥ 2.5	≥ 15	–	–
Cn1c(=O)oc2ccc(-c3ccc(C[C@@H](C#N)NC(=O)CC(N)C4CCCCC4)cc3)cc21 (stereo partly drawn) [Compound 190, 3-amino-N-[(1S)-1-cyano-2-[4-(3-methyl-2-oxo-2,3-dihydro-1,3-benzoxazol-5-yl)phenyl]ethyl]-3-cyclohexylpropanamide]	≥ 2.5	–	–	–
CC(C(=O)N[C@H](C#N)Cc1ccc(-c2ccc3oc(=O)n(C)c3c2)cc1)C1(N)CC1 (some centres unmarked) [Compound 195]	≥ 2.5	≥ 15	–	–
CN(C)C[C@](C)(O)C(=O)N[C@H](C#N)Cc1ccc(-c2ccc(S(=O)(=O)N3CCC3)cc2)cc1 [Compound 415]	–	–	≤ 40	≤ 76.5
CN(C)C[C@](C)(O)C(=O)N[C@H](C#N)Cc1ccc(-c2ccc3cnn(C)c3c2)cc1F [Compound 416]	–	–	40 to 66.7	76.5 to 93.9
CN(C)C[C@](C)(O)C(=O)N[C@H](C#N)Cc1ccc(-c2ccc3nnn(C)c3c2)cc1F [Compound 417]	–	–	≥ 66.7	76.5 to 93.9
CN(C)C[C@](C)(O)C(=O)N[C@H](C#N)Cc1ccc(-c2cnc3c(n2)CCCC3)cc1F [Compound 418]	–	–	40 to 66.7	≤ 76.5
CN(C)C[C@](C)(O)C(=O)N[C@H](C#N)Cc1ccc(-c2ccc(S(=O)(=O)N3CCC3)cc2)cc1F [Compound 419]	–	–	≤ 40	≤ 76.5
CN(C)C[C@](C)(O)C(=O)N[C@H](C#N)Cc1cc2c(cc1F)-c1ccc(F)cc1CO2 [Compound 420]	–	–	≤ 40	≤ 76.5
